Here are results for ten compounds from patent publication US7351737B2, “4-[(8-substituted)-6-chromanoyl]-and 4-[8-substituted)-chroman-6-YL-ethynyl]-benzoic and phenylacetic acids, their esters and salts having cytochrome P450RAI inhibitory activity” (Allergan, Inc., priority 2002, dated 2008).

For one experiment, the target named is T1, P450RAI-2 (Homo sapiens, UniProt Q9NR63).
T1 construct: expressed in transfected cells; host or cells: HeLa
T1 sequence (Q9NR63 1-512): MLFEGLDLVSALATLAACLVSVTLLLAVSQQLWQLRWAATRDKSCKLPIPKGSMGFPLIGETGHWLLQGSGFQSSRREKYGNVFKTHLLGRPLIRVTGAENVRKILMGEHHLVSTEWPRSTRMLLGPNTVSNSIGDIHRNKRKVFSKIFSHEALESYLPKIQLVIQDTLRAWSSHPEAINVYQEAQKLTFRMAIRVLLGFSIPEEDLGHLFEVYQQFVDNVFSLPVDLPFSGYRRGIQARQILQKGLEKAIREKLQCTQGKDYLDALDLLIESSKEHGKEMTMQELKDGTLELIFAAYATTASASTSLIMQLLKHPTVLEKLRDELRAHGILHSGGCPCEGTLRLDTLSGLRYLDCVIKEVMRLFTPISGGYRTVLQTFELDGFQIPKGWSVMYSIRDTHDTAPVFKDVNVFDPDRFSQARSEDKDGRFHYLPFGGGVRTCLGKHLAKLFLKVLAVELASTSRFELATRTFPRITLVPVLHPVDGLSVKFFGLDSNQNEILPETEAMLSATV
The experiment is described as follows: P450RAI-2 cell-based inhibitor assay ([3H]-RA metabolism, intact cells). Particulars: P450RAI-2 stably transfected HeLa cells, 3 hours at 37° C., all-trans-RA metabolism; read-out: P450RAI INHIBITION DATA RAI-2 Intact Cells IC50. As for the experimental part:
FIG. 1 is a schematic representation of the P450RAI cell based assay utilized to evaluate the ability of the compounds of the invention to inhibit the Cytochrome P450RAI enzyme.
P450RAI-1 and P450RAI-2 Cell-Based Inhibitor Assay:
P450RAI-1 stably transfected HeLa cells, or P450RAI-2 stably transfected HeLa cells, as applicable, are maintained in […] tissue culture dishes in Modified Eagle's Medium (MEM) containing 10% Fetal Bovine Serum (FBS) and 100 μg/ml hygromycin. Exponentially growing cells are harvested by incubating in trypsin. Cells are then washed with 1X Phosphate Buffered Saline (PBS) and plated in a 48-well plate at 5×10^5 cells in 0.2 ml MEM medium containing 10% FBS and 0.05 μCi [^3H]-RA in the presence or absence of increasing concentrations of the test compounds. The compounds are diluted in 100% DMSO and then added in triplicate wells at either 10, 1 or 0.1 μM final concentration. As a positive control for RA metabolism inhibition, cells are also incubated with ketoconazole at 100, 10 and 1 μM. Cells are incubated for 3 hours at 37° C. The retinoids are then extracted using the procedure of Bligh et al. (1959) Canadian Journal of Biochemistry 37, 911-917, modified by using methylenechloride instead of chloroform. The publication Bligh et al. (1959) Canadian Journal of Biochemistry 37, 911-917 is specifically incorporated herein by reference. The water soluble radioactivity is quantified using a β-scintillation counter. IC50 values represent the concentration of inhibitor required to inhibit all-trans-RA metabolism by 50 percent and are derived manually from log-transformed data.

The target of the next experiment is T2, RARα (Homo sapiens, UniProt P10276).
T2 sequence (P10276 1-462): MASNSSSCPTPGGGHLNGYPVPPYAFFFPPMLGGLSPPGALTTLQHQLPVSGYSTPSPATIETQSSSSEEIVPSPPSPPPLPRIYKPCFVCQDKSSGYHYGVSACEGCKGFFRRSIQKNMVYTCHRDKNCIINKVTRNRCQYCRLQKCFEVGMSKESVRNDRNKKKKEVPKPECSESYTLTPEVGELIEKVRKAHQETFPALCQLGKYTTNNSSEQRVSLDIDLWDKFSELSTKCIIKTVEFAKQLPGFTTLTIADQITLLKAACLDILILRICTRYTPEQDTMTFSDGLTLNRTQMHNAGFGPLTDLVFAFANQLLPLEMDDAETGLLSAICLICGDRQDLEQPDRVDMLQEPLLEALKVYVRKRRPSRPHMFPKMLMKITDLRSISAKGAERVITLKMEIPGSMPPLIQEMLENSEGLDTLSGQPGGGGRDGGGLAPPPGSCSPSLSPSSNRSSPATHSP
The experiment is described as follows: ligand binding assay, RARα. The following applies: last item of cell, read-out: RAR α Kd. The source says: (§1) Assays described below measure the ability of a compound to bind to, and/or activate various retinoid receptor subtypes. When in these assays a compound binds to a given receptor subtype and activates the transcription of a reporter gene through that subtype, then the compound is considered an agonist of that receptor subtype. […] In the below described assays the ability of the compounds to bind to RARα, RARβ, RARγ, RXRα, RXRβ and RXRγ receptors, and the ability or inability of the compounds to activate transcription of a reporter gene through these receptor subtypes can be tested.
(§2) A holoreceptor transactivation assay and a ligand binding assay which measure the antagonist/agonist like activity of the compounds of the invention, or their ability to bind to the several retinoid receptor subtypes, respectively, are described in published PCT Application No. WO WO93/11755 (particularly on pages 30-33 and 37-41) published on Jun. 24, 1993, the specification of which is also incorporated herein by reference. A detailed experimental procedure for holoreceptor transactivations has been described by Heyman et al. Cell 68, 397-406, (1992); Allegretto et al. J. Biol. Chem. 268, 26625-26633, and Mangelsdorf et al. The Retinoids: Biology, Chemistry and Medicine, pp 319-349, Raven Press Ltd., New York, which are expressly incorporated herein by reference. The results obtained in this assay are expressed in EC50 numbers, as they are also in the chimeric receptor transactivation assay. The results of ligand binding assay are expressed in Kd numbers. (See Cheng et al. Biochemical Pharmacology Vol. 22 pp 3099-3108, expressly incorporated herein by reference.)
(§3) The results of the ligand binding assay for several preferred compounds of the invention are included in Table 1.

A further experiment concerns the target T3, RARγ (Homo sapiens, UniProt P13631).
T3 sequence (P13631 1-454): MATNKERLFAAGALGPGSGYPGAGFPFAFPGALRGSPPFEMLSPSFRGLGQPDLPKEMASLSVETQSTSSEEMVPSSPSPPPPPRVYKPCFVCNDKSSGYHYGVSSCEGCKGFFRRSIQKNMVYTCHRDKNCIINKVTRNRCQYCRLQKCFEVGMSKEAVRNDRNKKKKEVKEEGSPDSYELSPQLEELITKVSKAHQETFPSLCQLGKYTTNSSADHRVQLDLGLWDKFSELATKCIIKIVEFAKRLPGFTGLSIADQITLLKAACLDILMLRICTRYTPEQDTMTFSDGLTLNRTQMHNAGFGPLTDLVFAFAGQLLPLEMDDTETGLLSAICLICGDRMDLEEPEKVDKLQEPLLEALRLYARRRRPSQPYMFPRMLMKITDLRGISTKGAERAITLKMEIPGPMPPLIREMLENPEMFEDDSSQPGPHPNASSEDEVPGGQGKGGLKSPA
The experiment is described as follows: ligand binding assay, RARγ. The following applies: last item of cell, read-out: RAR γ Kd.
From the text: as §1, §2, §3

Turning to `C#Cc1cc(C(=O)Oc2ccc(CC(=O)O)cc2)cc2c1OC(C)(C)CC2(C)C` [Compound 1, 8-Ethynyl-2,2,4,4-tetramethyl-chroman-6-carboxylic acid 4-carboxymethyl-phenyl ester], the IC50 at P450RAI-2 came to 0.014 µM. Besides, the Kd on RARα and at RARγ was over 10 µM each time.

As to `C#Cc1cc(C(=O)Oc2ccc(CC(=O)OCC)cc2)cc2c1OC(C)(C)CC2(C)C` [Compound 2, 8-Ethynyl-2,2,4,4-tetramethyl-chroman-6-carboxylic acid 4-ethoxycarbonylmethyl-phenyl ester], the half-inhibitory concentration (IC50) on P450RAI-2 came out at 6 µM. The Kd at RARα and at RARγ was over 10 µM in each case.

As to `C#Cc1cc(C(=O)Oc2ccc(CC(=O)OCOC(C)=O)cc2)cc2c1OC(C)(C)CC2(C)C` [Compound 3, 8-Ethynyl-2,2,4,4-tetramethyl-chroman-6-carboxylic acid 4-acetoxymethoxycarbonylmethyl-phenyl ester], at P450RAI-2, the IC50 is 0.08 µM. The Kd on RARα and on RARγ was over 10 µM throughout.

In the case of `C#Cc1cc(C(=O)Oc2ccc(CC(=O)O)c(F)c2)cc2c1OC(C)(C)CC2(C)C` [Compound 4, 8-Ethynyl-2,2,4,4-tetramethyl-chroman-6-carboxylic acid-4-carboxymethyl-3-fluoro-phenyl ester], the IC50 on P450RAI-2 came out at 0.06 µM. The Kd is 3.47 µM at RARα and over 10 µM on RARγ.

In the case of `C#Cc1cc(C(=O)Oc2ccc(CC(=O)OCOC(C)=O)c(F)c2)cc2c1OC(C)(C)CC2(C)C` [Compound 5, 8-Ethynyl-2,2,4,4-tetramethyl-chroman-6-carboxylic acid 4-acetoxymethoxycarbonylmethyl-3-fluoro-phenyl ester], on P450RAI-2, the IC50 amounted to 0.03 µM. Besides, the Kd was 4.68 µM on RARα and over 10 µM at RARγ.

As for `CC1(C)CC(C)(C)c2cc(C(=O)Oc3ccc(CC(=O)O)c(F)c3)cc(C#N)c2O1` [Compound 32, 8-Cyano-2,2,4,4-tetramethyl-chroman-6-carboxylic acid-4-carboxymethyl-3-fluoro-phenyl ester], the IC50 on P450RAI-2 was 0.9 µM. In addition, the Kd on RARα and at RARγ was over 10 µM throughout.

Take `CC(=O)OCOC(=O)Cc1ccc(OC(=O)c2cc(C#N)c3c(c2)C(C)(C)CC(C)(C)O3)cc1F` [Compound 33, 8-Cyano-2,2,4,4-tetramethyl-chroman-6-carboxylic acid 4-acetoxymethoxycarbonylmethyl-3-fluoro-phenyl ester]: the IC50 on P450RAI-2 was found to be 0.7 µM. Besides, the Kd at RARα and at RARγ was over 10 µM throughout.

As for `C#Cc1cc(C#Cc2ccc(CC(=O)O)cc2)cc2c1OC(C)(C)CC2(C)C` [Compound 40, [4-(8-Ethynyl-2,2,4,4-tetramethyl-chroman-6-ylethynyl)-phenyl]-acetic acid], the IC50 on P450RAI-2 turned out to be 0.007 µM. Besides, the Kd on RARα and at RARγ was over 10 µM throughout.

For `C#Cc1cc(C#Cc2ccc(CC(=O)O)c(F)c2)cc2c1OC(C)(C)CC2(C)C` [Compound 41, [4-(8-Ethynyl-2,2,4,4-tetramethyl-chroman-6-ylethynyl)-2-fluoro-phenyl]-acetic acid], the IC50 at P450RAI-2 was determined as 0.004 µM. Moreover, the Kd at RARα and at RARγ was over 10 µM in each case.

As to `C#CCc1cc(C#Cc2ccc(CC(=O)O)cc2)cc2c1OC(C)(C)CC2(C)C` [Compound 49], the IC50 at P450RAI-2 amounted to 0.12 µM. Further, the dissociation constant (Kd) at RARα was 7.24 µM; on RARγ, 8.24 µM.
